According to ChEMBL document CHEMBL1909046, “DrugMatrix in vitro pharmacology data”:

Key:
[1] = target: Beta-3 adrenergic receptor (Homo sapiens, UniProt P13945); assay: DRUGMATRIX: Adrenergic beta3 radioligand binding (ligand: [125I] Cyanopindolol); type: cell membranes, HEK293, Membrane; details: hek293; Not Active = under 50% inhibition at 10 µM
[2] = target: C-C chemokine receptor type 5 (Homo sapiens, UniProt P51681); type: cell membranes, Membrane; details: hek293; further: in other assays of this panel Not Active means under 50% inhibition at 10 µM
[3] = DRUGMATRIX: ATPase, Na+/K+ enzyme inhibition (substrate: ATP); type: tissue-based, Sus scrofa, Heart; details: Not Active = under 50% inhibition at 10 µM
[4] = target: T1, D(4) dopamine receptor (Homo sapiens, UniProt P21917); assay: DRUGMATRIX: Dopamine D4.2 radioligand binding (ligand: [3H] Spiperone); type: cell membranes, CHO-K1, Membrane; details: cho-k1; Not Active = under 50% inhibition at 10 µM
T1 sequence (P21917 whole entry): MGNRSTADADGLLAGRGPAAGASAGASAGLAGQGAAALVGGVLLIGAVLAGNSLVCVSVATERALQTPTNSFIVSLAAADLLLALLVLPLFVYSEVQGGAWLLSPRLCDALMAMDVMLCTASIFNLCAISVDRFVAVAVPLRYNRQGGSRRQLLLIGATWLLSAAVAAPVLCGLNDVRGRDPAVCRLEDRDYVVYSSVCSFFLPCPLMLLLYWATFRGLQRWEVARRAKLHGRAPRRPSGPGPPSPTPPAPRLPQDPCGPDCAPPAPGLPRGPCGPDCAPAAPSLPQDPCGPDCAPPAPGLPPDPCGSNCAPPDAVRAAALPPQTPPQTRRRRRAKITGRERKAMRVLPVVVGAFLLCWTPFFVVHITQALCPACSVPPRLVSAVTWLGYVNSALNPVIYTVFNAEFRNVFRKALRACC

[5] = DRUGMATRIX: GABAA, Chloride Channel, TBOB radioligand binding (ligand: [3H] TBOB); type: cell membranes, Rattus norvegicus, Wistar, Cerebral cortex, Membrane; details: Not Active = under 50% inhibition at 10 µM
[6] = target: D(1A) dopamine receptor (Homo sapiens, UniProt P21728); assay: DRUGMATRIX: Dopamine D1 radioligand binding (ligand: [3H] SCH-23390); type: cell membranes, CHO, Membrane; details: Not Active = under 50% inhibition at 10 µM
[7] = DRUGMATRIX: Purinergic P2X radioligand binding (ligand: [3H] alpha, beta-Methylene-ATP); type: cell membranes, Oryctolagus cuniculus, New Zealand albino, Urinary bladder, Membrane; details: Not Active = under 50% inhibition at 10 µM

Chain of D(1A) dopamine receptor (P21728 whole entry): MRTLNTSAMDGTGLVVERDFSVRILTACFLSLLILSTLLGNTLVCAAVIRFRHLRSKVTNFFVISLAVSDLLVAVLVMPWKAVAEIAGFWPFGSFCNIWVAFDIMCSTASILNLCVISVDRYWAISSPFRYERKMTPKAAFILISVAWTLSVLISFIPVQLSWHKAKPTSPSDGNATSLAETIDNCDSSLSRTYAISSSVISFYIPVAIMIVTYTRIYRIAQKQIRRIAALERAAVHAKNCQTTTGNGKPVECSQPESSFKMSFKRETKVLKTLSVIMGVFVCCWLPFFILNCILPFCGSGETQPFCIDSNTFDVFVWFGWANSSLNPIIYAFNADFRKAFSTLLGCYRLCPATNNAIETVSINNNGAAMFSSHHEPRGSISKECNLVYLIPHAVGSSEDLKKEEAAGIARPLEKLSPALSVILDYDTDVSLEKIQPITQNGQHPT
Chain of C-C chemokine receptor type 5 (P51681 whole entry): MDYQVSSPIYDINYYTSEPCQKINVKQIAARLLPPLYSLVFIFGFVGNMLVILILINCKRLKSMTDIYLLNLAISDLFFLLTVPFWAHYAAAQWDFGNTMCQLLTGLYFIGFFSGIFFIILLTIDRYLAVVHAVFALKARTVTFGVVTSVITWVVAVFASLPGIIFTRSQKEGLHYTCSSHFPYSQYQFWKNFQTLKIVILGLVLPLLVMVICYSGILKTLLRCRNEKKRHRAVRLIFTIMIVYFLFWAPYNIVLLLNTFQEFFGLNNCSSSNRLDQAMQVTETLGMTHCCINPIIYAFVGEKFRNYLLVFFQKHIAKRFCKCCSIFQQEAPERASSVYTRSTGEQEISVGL
Chain of Beta-3 adrenergic receptor (P13945 whole entry): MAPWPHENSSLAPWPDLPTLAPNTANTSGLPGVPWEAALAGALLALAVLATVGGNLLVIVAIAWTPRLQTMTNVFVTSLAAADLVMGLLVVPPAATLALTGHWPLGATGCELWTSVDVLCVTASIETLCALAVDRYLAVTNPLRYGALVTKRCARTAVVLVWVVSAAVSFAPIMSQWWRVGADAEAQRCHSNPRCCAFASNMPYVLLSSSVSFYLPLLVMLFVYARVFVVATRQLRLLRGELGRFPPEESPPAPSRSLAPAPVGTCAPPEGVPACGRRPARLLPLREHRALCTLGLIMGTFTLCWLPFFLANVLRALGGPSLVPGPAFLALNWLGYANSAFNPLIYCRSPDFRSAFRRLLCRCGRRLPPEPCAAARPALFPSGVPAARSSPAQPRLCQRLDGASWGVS

## C[C@H]([C@](O)(Cn1cncn1)c1ccc(F)cc1F)S(C)(=O)=O [GENACONAZOLE]
[1]
  IC50: Not Active
[2]
  IC50: Not Active
[3]
  IC50: Not Active
  Ki: Not Active
[4]
  IC50: Not Active
[5]
  IC50: Not Active
  Ki: Not Active
[6]; cho
  IC50: Not Active
[7]
  IC50: Not Active
  Ki: Not Active

## CCOC(=O)C1=C(C)NC(C)=C(C(=O)OC)C1c1cccc(Cl)c1Cl (stereo unspecified) [FELODIPINE]
[1]
  IC50: Not Active
[2]
  IC50: Not Active
[3]
  IC50: Not Active
  Ki: Not Active
[4]
  IC50: Not Active
[5]
  IC50: Not Active
  Ki: Not Active
[6]; cho
  IC50: Not Active
[7]
  IC50: Not Active
  Ki: Not Active

## CC(C)C[C@H]1C(=O)N2CCC[C@H]2[C@]2(O)O[C@](NC(=O)[C@@H]3C=C4c5cccc6[nH]c(Br)c(c56)C[C@H]4N(C)C3)(C(C)C)C(=O)N12 [BROMOCRIPTINE]
[1]
  IC50: Not Active
[2]
  IC50: Not Active
[3]
  IC50: Not Active
  Ki: Not Active
[4]
  IC50: Not Active
[5]
  IC50: Not Active
  Ki: Not Active
[6]; read-out: IC50
  IC50: 2890 nM
[6]; read-out: Ki
  Ki: 1440 nM
[7]
  IC50: Not Active
  Ki: Not Active

## CCOC(=O)[C@H](CCc1ccccc1)N[C@@H](C)C(=O)N1CCC[C@H]1C(=O)O
[1]
  IC50: Not Active
[2]
  IC50: Not Active
[3]
  IC50: Not Active
  Ki: Not Active
[4]
  IC50: Not Active
[5]
  IC50: Not Active
  Ki: Not Active
[6]; cho
  IC50: Not Active
[7]
  IC50: Not Active
  Ki: Not Active

## C[C@@H]1CC[C@H]2[C@@H](C)C(=O)O[C@@H]3O[C@@]4(C)CC[C@@H]1[C@]32OO4 [ARTEMISININ]
[1]
  IC50: Not Active
[2]
  IC50: Not Active
[3]
  IC50: Not Active
  Ki: Not Active
[4]
  IC50: Not Active
[5]
  IC50: Not Active
  Ki: Not Active
[6]; cho
  IC50: Not Active
[7]
  IC50: Not Active
  Ki: Not Active

## CN1C(=O)CN=C(c2ccccc2)c2cc(Cl)ccc21 [DIAZEPAM]
[1]
  IC50: Not Active
[2]
  IC50: Not Active
[3]
  IC50: Not Active
  Ki: Not Active
[4]
  IC50: Not Active
[5]
  IC50: Not Active
  Ki: Not Active
[6]; cho
  IC50: Not Active
[7]
  IC50: Not Active
  Ki: Not Active

## Nn1nnc2ccccc21
[1]
  IC50: Not Active
[2]
  IC50: Not Active
[3]
  IC50: Not Active
  Ki: Not Active
[4]
  IC50: Not Active
[5]
  IC50: Not Active
  Ki: Not Active
[6]; cho
  IC50: Not Active
[7]
  IC50: Not Active
  Ki: Not Active

## CC(C)(CO)C(O)C(=O)NCCCO (stereo unspecified) [PANTHENOL]
[1]
  IC50: Not Active
[2]
  IC50: Not Active
[3]
  IC50: Not Active
  Ki: Not Active
[4]
  IC50: Not Active
[5]
  IC50: Not Active
  Ki: Not Active
[6]; cho
  IC50: Not Active
[7]
  IC50: Not Active
  Ki: Not Active

## O=C(O)Cc1ccc(-c2ccccc2)cc1 [FELBINAC]
[1]
  IC50: Not Active
[2]
  IC50: Not Active
[3]
  IC50: Not Active
  Ki: Not Active
[4]
  IC50: Not Active
[5]
  IC50: Not Active
  Ki: Not Active
[6]; cho
  IC50: Not Active
[7]
  IC50: Not Active
  Ki: Not Active

## O=C(O)c1cccnc1 [NIACIN]
[1]
  IC50: Not Active
[2]
  IC50: Not Active
[3]
  IC50: Not Active
  Ki: Not Active
[4]
  IC50: Not Active
[5]
  IC50: Not Active
  Ki: Not Active
[6]; cho
  IC50: Not Active
[7]
  IC50: Not Active
  Ki: Not Active

## C[C@H](C(=O)O)c1cccc(C(=O)c2ccccc2)c1 [DEXKETOPROFEN]
[1]
  IC50: Not Active
[2]
  IC50: Not Active
[3]
  IC50: Not Active
  Ki: Not Active
[4]
  IC50: Not Active
[5]
  IC50: Not Active
  Ki: Not Active
[6]; cho
  IC50: Not Active
[7]
  IC50: Not Active
  Ki: Not Active

## CC[C@H]1OC(=O)[C@H](C)[C@@H](O[C@H]2C[C@@](C)(OC)[C@@H](O)[C@H](C)O2)[C@H](C)[C@@H](O[C@@H]2O[C@H](C)C[C@H](N(C)C)[C@H]2O)[C@](C)(OC)C[C@@H](C)C(=O)[C@H](C)[C@@H](O)[C@]1(C)O [CLARITHROMYCIN]
[1]
  IC50: Not Active
[2]
  IC50: Not Active
[3]
  IC50: Not Active
  Ki: Not Active
[4]
  IC50: Not Active
[5]
  IC50: Not Active
  Ki: Not Active
[6]; cho
  IC50: Not Active
[7]
  IC50: Not Active
  Ki: Not Active
